Source: paper PMC10436493, “Unveiling the antitumor potential of novel N-(substituted-phenyl)-8-methoxycoumarin-3-carboxamides as dual inhibitors of VEGFR2 kinase and cytochrome P450 for targeted treatment of hepatocellular carcinoma” (Frontiers in Chemistry, 2023)
Read-outs that look alike come from different tables or passages of the source.

Experiments:
[1] = tested on: human liver carcinoma HepG2 cell line; experiment: MTT cytotoxicity assay on liver cancer cells; type: cell-based; settings: 24 h treatment
Description: Toward this, the HepG-2 cells were cultured and treated with tested compounds at different concentrations for 24 h and subsequently 3-(4,5-dimethylthiazol-2-yl)-2,5-diphenyltetrazolium bromide (MTT) dye was added. The colorimetric measurement was assessed using an ELISA plate reader at a wavelength of 570 nm.
Following this initial incubation period, the cells were exposed to varying concentrations of the synthesized compounds. The concentrations may have ranged from a lower to higher dose, depending on the experimental design. The molecules were dissolved in an appropriate solvent, DMSO, to obtain the desired concentrations. Control wells with no drug treatment were also included. […] The duration of the incubation may have varied depending on the specific experimental requirements. At the end of the 24-h treatment, (3-(4,5-dimethylthiazol-2-yl)-2,5-diphenyltetrazolium bromide) MTT dye was added to each well. MTT is a yellow tetrazolium salt that is utilized by metabolically active cells and converted into purple formazan crystals by mitochondrial enzymes in viable cells. […] DMSO is a common solvent used to dissolve the formazan crystals and extract the intracellular purple product. The plate was then subjected to colorimetric measurement using an ELISA plate reader at a wavelength of 570 nm. The intensity of the purple color is proportional to the number of viable cells and reflects the growth condition of the cells in each well. The results were analyzed by calculating the percentage of cell viability or cell growth inhibition compared to the control wells. […] The experiments were performed with at least three replicates for each concentration, and the entire experiment was repeated at least three times to ensure the reliability of the results.

HL-7702 normal cell line = experiment: MTT cytotoxicity assay on normal liver cells; type: cell-based; settings: Homo sapiens, L02, 24 h treatment
Description: Following this initial incubation period, the cells were exposed to varying concentrations of the synthesized compounds. The concentrations may have ranged from a lower to higher dose, depending on the experimental design. The molecules were dissolved in an appropriate solvent, DMSO, to obtain the desired concentrations. Control wells with no drug treatment were also included. […] The duration of the incubation may have varied depending on the specific experimental requirements. At the end of the 24-h treatment, (3-(4,5-dimethylthiazol-2-yl)-2,5-diphenyltetrazolium bromide) MTT dye was added to each well. MTT is a yellow tetrazolium salt that is utilized by metabolically active cells and converted into purple formazan crystals by mitochondrial enzymes in viable cells. […] DMSO is a common solvent used to dissolve the formazan crystals and extract the intracellular purple product. The plate was then subjected to colorimetric measurement using an ELISA plate reader at a wavelength of 570 nm. The intensity of the purple color is proportional to the number of viable cells and reflects the growth condition of the cells in each well. The results were analyzed by calculating the percentage of cell viability or cell growth inhibition compared to the control wells. […]

HepG-2 cells [2] = experiment: Cell cycle analysis by DNA flow cytometry (PI staining); type: cell-based, human; settings: HepG-2, compound at IC50 (0.75 µM), 24 h
Description: Based on this promising activity, compound 7 was selected for further evaluation to assess its effect on the cell cycle profile in HepG-2 cells. To evaluate the cell cycle, a biparametric cytofluorimetric analysis was conducted on HepG-2 cells treated with compound 7 at its IC50 concentration for a duration of 24 h. Propidium iodide (PI) was used as the staining agent for this analysis. (Figure 5). […] Similarly, the percentage of cells in the G2/M phase decreased from 11.46% in the control group to 6.4% after treatment with compound 7. In contrast, there was a notable increase in the percentage of cells in the S phase after treatment with Compound 7. […] These findings indicate that the treatment of HepG-2 cells with compound 7 leads to cell cycle arrest specifically in the S phase. This is evident from the decrease in the proportion of cells in the G1 and G2/M phases, accompanied by an increase in the percentage of cells residing in the S phase. Cell cycle arrest is a widely recognized mechanism utilized by anticancer agents to impede the excessive proliferation of cancer cells. By inducing cell cycle arrest, these agents disrupt the normal progression of the cell cycle, preventing cancer cells from dividing and multiplying uncontrollably. This therapeutic strategy helps to halt tumor growth and promotes the effectiveness of cancer treatments. The observed effects of compound 7 on the cell cycle profile of HepG-2 cells are indicative of its potential as an antitumor agent. […] Furthermore, the increase in the percentage of cells in the S phase upon treatment with Compound 7 may indicate DNA damage and activation of DNA repair mechanisms, which can contribute to the observed S phase arrest.
HepG-2 cells were seeded in […] at a density of 3.0 × 10^5 cells per well and incubated at 37°C for 12 h to allow cell attachment and growth. After the initial incubation, the cells were treated with compound 7 at its IC50 concentration dose value for 24 h. […] Flow cytometry analysis measures the fluorescence emitted by the cells stained with PI, which correlates with the DNA content. […]

HepG-2 cells [3] = experiment: Annexin V-FITC/PI apoptosis assay; type: cell-based, human
Description: The Annexin V-FITC/PI assay is a well-established flow cytometric method to evaluate the apoptotic potential of bioactive compounds. The assay allows differentiation between apoptotic cells and live cells by using fluorescent dyes that bind to phosphatidylserine (PS) and DNA, respectively ([Galluzzi et al., 2018]; [Pfeffer and Singh, 2018]; [Tong et al., 2022]). In the present study, the assay was performed to explore the apoptotic effect of compound 7 (at its IC50 dose value) on HepG-2 cells. […] The Annexin V-FITC/PI assay is a well-established method to evaluate the apoptotic potential of chemical compounds. Inducing apoptosis is an appealing therapeutic approach for cancer treatment as it is a vital cellular process essential for preserving tissue balance and removing impaired or unnecessary cells. Disruption in the regulation of apoptosis can contribute to various diseases, such as cancer, highlighting its significance. […] The early stage of apoptosis is characterized by the translocation of PS from the inner to the outer leaflet of the plasma membrane, which can be detected by Annexin V-FITC staining. […] Further, the late stage of apoptosis is characterized by DNA fragmentation, which can be detected by PI staining. […] According to these findings, there is a notable connection between the ability of compound 7 to induce programmed cell death in HepG-2 cells and its antiproliferative effects.
The experimental method involved seeding HepG-2 cells at a density of 1.5 × 10^5 cells per well in a 6-well plate and incubating the cells for 12 h to allow for cell attachment and growth. Following this, the cells were treated with compound 7 at its IC50 concentration for 24 h to induce apoptosis. Apoptosis, a programmed cell death process, was detected by staining the cells with Annexin-V conjugated to fluorescein isothiocyanate (FITC) and Propidium Iodide (PI), and the stained cells were analyzed using a FACSCalibur cytometer and Cellquest software (BD Bioscience). Annexin-V is a protein that binds specifically to phosphatidylserine, a phospholipid that is externalized on the outer surface of the plasma membrane during early stages of apoptosis. FITC, a green-fluorescent dye conjugated to Annexin-V, is used to label the apoptotic cells. PI, a red-fluorescent DNA intercalating agent, is used to distinguish between apoptotic and necrotic cells based on their DNA content. The FACSCalibur cytometer is a flow cytometer used to analyze and quantify fluorescently labeled cells. The experimental method likely allowed for the quantification of apoptotic cells by analyzing the Annexin-V-FITC and PI staining patterns using flow cytometry. The results obtained from this method provided information on the induction of apoptosis by compound 7 in HepG-2 cells, further elucidating the mechanism of action of this compound as a potential anticancer agent. To ensure the reliability of the results, the experimental conditions were repeated at least three times, and the cells were exposed to therapeutically effective concentration of the compound, they were treated with compound 7 at a dose corresponding to its IC50 concentration. This ensured that the cells were subjected to an optimal concentration of the compound during the experiment. This experimental method yielded crucial information on the mechanism by which it exerts its anticancer effects.

VEGFR-2 = biological target: T1, VEGFR-2 (Homo sapiens, UniProt P35968); experiment: VEGFR-2 ELISA assay; type: cell-based
T1 construct: ability to target the VEGFR-2 receptor inHep-G2 cells; endogenous in cells; host or cells: Hep-G2
T1 sequence (P35968 20-1356): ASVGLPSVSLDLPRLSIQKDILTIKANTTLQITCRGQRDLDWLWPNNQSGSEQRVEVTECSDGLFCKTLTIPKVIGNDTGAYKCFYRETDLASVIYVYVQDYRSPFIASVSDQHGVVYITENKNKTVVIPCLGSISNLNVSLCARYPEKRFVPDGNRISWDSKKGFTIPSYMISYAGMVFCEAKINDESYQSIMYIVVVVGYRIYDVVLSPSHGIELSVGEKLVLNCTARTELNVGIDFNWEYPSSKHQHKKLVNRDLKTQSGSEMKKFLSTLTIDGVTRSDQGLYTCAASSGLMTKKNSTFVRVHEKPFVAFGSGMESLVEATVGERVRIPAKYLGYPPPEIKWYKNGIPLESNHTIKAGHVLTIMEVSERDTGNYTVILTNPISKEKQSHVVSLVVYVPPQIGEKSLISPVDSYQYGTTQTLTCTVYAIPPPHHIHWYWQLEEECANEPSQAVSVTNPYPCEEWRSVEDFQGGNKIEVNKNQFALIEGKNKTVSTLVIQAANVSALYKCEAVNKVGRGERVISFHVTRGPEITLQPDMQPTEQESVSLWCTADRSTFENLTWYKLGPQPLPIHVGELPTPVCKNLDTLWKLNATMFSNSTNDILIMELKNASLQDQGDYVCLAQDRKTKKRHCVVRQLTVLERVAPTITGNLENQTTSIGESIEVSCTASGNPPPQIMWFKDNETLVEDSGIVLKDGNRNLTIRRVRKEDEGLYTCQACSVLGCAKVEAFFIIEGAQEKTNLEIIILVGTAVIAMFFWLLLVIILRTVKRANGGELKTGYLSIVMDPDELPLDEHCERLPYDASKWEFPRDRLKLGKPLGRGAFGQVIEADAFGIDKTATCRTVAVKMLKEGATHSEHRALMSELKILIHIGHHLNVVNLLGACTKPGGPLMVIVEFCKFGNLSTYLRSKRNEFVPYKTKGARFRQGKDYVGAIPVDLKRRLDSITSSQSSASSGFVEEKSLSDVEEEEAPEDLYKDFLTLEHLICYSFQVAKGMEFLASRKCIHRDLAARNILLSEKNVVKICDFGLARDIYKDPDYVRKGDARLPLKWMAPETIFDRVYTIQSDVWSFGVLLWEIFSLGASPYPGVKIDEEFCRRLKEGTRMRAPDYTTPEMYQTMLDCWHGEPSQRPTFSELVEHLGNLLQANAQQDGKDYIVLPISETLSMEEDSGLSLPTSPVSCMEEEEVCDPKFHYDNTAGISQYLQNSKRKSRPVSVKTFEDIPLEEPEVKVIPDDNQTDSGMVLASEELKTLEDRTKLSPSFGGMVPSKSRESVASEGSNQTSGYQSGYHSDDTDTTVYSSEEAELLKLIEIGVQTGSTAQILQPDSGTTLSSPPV
Description: A 96-well plate was used for the assay, and each well was filled with a specific volume of the tested molecules and standard concentrations. The wells were coated with an immobilized antibody that specifically binds to VEGFR-2. After incubation, the wells were washed to remove unbound molecules, and biotinylated anti-human VEGFR-2 antibody was added to the wells. This biotinylated antibody specifically binds to VEGFR-2 that is captured by the immobilized antibody. Following another round of washing, a solution of conjugated streptavidin, which binds to the biotinylated antibody, was added to the wells. […] During this incubation, the bound conjugated streptavidin transformed the substrate into a colorful product. After terminating the reaction with an inhibitor solution, the optical density of the produced color was instantly determined at 450 nm with a spectrophotometer.

CYP2D6 = CYP2D6 (Homo sapiens, UniProt P10635)
CYP2D6, sequence (P10635 whole entry): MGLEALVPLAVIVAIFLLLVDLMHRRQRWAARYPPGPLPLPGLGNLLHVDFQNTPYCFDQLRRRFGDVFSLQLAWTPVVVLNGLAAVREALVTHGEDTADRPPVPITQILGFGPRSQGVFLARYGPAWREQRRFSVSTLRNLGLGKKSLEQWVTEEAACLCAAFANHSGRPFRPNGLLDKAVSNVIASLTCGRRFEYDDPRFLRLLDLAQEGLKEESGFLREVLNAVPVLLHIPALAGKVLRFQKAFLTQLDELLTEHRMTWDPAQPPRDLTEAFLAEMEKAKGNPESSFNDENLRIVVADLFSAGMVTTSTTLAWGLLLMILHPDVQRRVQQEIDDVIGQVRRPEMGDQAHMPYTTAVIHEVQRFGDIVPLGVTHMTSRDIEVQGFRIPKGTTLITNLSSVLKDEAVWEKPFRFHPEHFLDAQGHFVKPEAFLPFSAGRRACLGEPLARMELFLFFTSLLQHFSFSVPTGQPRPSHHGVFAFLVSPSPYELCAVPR
Description: Human cells, obtained from the American Type Culture Collection (ATCC), were cultivated in RPMI medium (Invitrogen/Life Technologies). The medium was supplemented with 1% penicillin-streptomycin, 10 μg/ml of insulin (Sigma), and to support cell growth and 10% Fetal Bovine Serum (FBS) (Hyclone) viability. […] Cells were seeded into a 96-well plate at a density of 1.2–1.8 × 10,000 cells/well in a volume of 100 μL of complete growth medium. […] Each concentration was tested in triplicate. A control well with only complete growth medium was included as a negative control. […] The culture media was quickly withdrawn, and the cultured cells were rinsed with PBS. […] After the incubation, the fluorescence intensity of the converted product was measured using a FLx800™ Fluorescence Microplate Reader at the excitation wavelength of 390 nm and the emission wavelength of 488 nm. […] The data were analyzed for statistical significance and presented as mean ± standard deviation (SD) from triplicate measurements.

HepG-2 cells [4] = tested on: HepG-2 cells; set-up: method as in Fayed et al., 2019; settings: ref Fayed et al., 2019; read-out: IC50, cytotoxic activity against HepG-2 cells; cited from earlier work

Work on `COc1cccc2cc(C(=O)Nc3cccc(O)c3)c(=O)oc12` [Compound 3, N-(3-hydroxy)-phenyl 8-methoxycoumarin-3-carboxamide] yielded an IC50 [1] of 3.81 ± 0.16 µM and a melting point of 256 °C.

`COc1ccc(Br)c2cc(C(=O)Nc3cccc(O)c3)c(=O)oc12` [Compound 4, N-(3-hydroxy)phenyl 5-bromo-8-methoxycoumarin-3-carboxamide] showed an IC50 [1] of 38.3 ± 1.62 µM and a melting point of 289 °C.

Work on `COc1ccc(Br)c2cc(C(=O)Nc3cccc(OC(C)=O)c3)c(=O)oc12` [Compound 6, N-(3-acetoxy)phenyl 5-bromo-8-methoxycoumarin-3-carboxamide] yielded an IC50 [1] of 13.4 ± 0.56 µM and a melting point of 205 °C.

With `COc1cccc2cc(C(=O)Nc3cccc(O)c3)c(=O)[nH]c12` [Compound 7, N-(3-hydroxy)phenyl 8-methoxy-azacoumarin-3-carboxamide] the IC50 [1] was 0.75 ± 0.03 µM, the IC50 (HL-7702 normal cell line) was 13.7 ± 1.8 µM and the “percentage of cells in the G2/M phase” value (HepG-2 cells [2]; untreated control 11.46%) was 6.4%. For the same compound, the “percentage of cells in the S phase” value (HepG-2 cells [2]; untreated control 42.19%) was 54.52%, the “percentage of cells in the G1 phase” value (HepG-2 cells [2]; untreated control 46.35%) was 39.08% and the “fold increase of early apoptotic cells vs control” value (HepG-2 cells [3]; HepG-2, compound at IC50) was 45 fold. The “fold increase of late apoptotic cells vs control” value (HepG-2 cells [3]; HepG-2, compound at IC50) was 73 fold, the “fold increase of necrosis vs control” value (HepG-2 cells [3]; HepG-2, compound at IC50) was 2.5 fold and the “fold increase of total apoptotic cells vs control” value (HepG-2 cells [3]; HepG-2, compound at IC50) was 23 fold. The “percentage of apoptotic cells, late stage” value (HepG-2 cells [3]; HepG-2, compound at IC50 (0.75 µM), 24 h, control 0.21%) was 15.34%, the “percentage of apoptotic cells, early stage” value (HepG-2 cells [3]; HepG-2, compound at IC50 (0.75 µM), 24 h, control 0.55%) was 24.72% and the VEGFR2 protein level (VEGFR-2; Hep-G2 cells, untreated 3,007 pg/mL) was 1,086 pg/mL. For the same compound, the IC50 (VEGFR-2; summary graph, read-out: Angiogensis inhibtion IC50 (Figure 10) (converted)) was 110 µM, the IC50 (CYP2D6) was 110 µM and the “fold more potent than standard staurosporin toward CYP2D6” value (CYP2D6) was 2.1 fold.

With `COc1ccc(Br)c2cc(C(=O)Nc3cccc(O)c3)c(=O)[nH]c12` [Compound 8, N-(3-hydroxy)phenyl 5-bromo-8-methoxy-azacoumarin-3-carboxamide] the IC50 [1] was 4.79 ± 0.2 µM and the melting point was 255 °C.

In the case of `COc1ccc(-c2cc(-c3cc4ccccc4oc3=O)nc(NC(C)=O)c2C#N)cc1` [Compound 11], the IC50 (HepG-2 cells [4]) is listed as 4.5 µM.

Compound `CN[C@@H]1C[C@H]2O[C@@](C)([C@@H]1OC)n1c3ccccc3c3c4c(c5c6ccccc6n2c5c31)C(=O)NC4` [STU, staurosporine, reference compound] has an IC50 (CYP2D6; human) of 70.3 µg/mL.
